From patent publication US10537563B2, “Methods for treating ocular disease using inhibitors of CSF-1R” (NOVARTIS AG, priority 2016, dated 2020)

What was measured:
Ck1gamma2 = Ck1gamma2 (Homo sapiens, UniProt P78368); assay: In vitro kinase assay (Table 1); format: biochemical
PHKG2 = PHKG2 (Homo sapiens, UniProt P15735); assay: In vitro kinase assay (Table 1); format: biochemical
CSF_1_RK (h) = biological target: T1, CSF_1_RK (h) (Homo sapiens, UniProt P07333); assay: Kinase profiling at Invitrogen; format: biochemical
T1 construct: purchased Invitrogen
T1 sequence (P07333 20-972): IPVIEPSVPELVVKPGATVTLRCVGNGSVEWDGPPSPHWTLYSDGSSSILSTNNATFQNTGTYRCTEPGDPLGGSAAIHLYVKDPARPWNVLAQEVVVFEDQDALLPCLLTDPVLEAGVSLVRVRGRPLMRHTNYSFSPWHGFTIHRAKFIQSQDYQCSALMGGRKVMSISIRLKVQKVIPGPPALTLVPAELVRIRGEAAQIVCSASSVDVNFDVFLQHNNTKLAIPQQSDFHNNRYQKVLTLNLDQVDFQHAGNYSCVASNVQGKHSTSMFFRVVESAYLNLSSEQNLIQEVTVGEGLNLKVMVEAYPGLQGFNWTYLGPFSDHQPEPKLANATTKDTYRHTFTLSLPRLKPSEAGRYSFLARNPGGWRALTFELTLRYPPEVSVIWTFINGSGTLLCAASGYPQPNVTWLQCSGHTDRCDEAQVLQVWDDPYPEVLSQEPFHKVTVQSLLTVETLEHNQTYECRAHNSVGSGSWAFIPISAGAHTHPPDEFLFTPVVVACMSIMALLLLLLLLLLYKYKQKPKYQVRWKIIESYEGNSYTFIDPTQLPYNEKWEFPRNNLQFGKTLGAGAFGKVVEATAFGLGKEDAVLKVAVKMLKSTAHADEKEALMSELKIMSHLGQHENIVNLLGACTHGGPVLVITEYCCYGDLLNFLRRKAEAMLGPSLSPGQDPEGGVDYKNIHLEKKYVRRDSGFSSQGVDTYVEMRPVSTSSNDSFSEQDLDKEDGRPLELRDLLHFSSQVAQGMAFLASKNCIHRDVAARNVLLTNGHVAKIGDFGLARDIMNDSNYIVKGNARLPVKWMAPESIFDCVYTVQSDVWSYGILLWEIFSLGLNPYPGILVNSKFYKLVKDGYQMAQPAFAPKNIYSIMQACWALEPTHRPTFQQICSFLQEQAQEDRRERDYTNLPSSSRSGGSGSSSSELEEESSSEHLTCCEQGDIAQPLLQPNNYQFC

Aurora_A = Aurora_A (Homo sapiens, UniProt O14965); assay: In vitro kinase assay (Table 1); format: biochemical
BAF/Tel-Ros-1.1/sACP = biological target: T2, BAF/Tel-Ros-1.1/sACP (Homo sapiens, UniProt P08922); assay: BaF3 proliferation assay; format: cell-based, murine
T2 construct: fused on or other part: P41212 (Transcription factor ETV6)

Cdk7 cyclinH MAT1 = Cdk7 cyclinH MAT1 (Homo sapiens, UniProt P50613); assay: In vitro kinase assay (Table 1); format: biochemical
BAF/Tel-FLT4-Q2/sACP = biological target: T3, BAF/Tel-FLT4-Q2/sACP (Homo sapiens, UniProt P35916); assay: BaF3 proliferation assay; format: cell-based, murine
T3 construct: fused on or other part: P41212 (Transcription factor ETV6)

KDR = KDR (Homo sapiens, UniProt P35968); assay: In vitro kinase assay (Table 1); format: biochemical; settings: KDR=VEGF receptor
KDR, sequence (P35968 20-1356, species assumed): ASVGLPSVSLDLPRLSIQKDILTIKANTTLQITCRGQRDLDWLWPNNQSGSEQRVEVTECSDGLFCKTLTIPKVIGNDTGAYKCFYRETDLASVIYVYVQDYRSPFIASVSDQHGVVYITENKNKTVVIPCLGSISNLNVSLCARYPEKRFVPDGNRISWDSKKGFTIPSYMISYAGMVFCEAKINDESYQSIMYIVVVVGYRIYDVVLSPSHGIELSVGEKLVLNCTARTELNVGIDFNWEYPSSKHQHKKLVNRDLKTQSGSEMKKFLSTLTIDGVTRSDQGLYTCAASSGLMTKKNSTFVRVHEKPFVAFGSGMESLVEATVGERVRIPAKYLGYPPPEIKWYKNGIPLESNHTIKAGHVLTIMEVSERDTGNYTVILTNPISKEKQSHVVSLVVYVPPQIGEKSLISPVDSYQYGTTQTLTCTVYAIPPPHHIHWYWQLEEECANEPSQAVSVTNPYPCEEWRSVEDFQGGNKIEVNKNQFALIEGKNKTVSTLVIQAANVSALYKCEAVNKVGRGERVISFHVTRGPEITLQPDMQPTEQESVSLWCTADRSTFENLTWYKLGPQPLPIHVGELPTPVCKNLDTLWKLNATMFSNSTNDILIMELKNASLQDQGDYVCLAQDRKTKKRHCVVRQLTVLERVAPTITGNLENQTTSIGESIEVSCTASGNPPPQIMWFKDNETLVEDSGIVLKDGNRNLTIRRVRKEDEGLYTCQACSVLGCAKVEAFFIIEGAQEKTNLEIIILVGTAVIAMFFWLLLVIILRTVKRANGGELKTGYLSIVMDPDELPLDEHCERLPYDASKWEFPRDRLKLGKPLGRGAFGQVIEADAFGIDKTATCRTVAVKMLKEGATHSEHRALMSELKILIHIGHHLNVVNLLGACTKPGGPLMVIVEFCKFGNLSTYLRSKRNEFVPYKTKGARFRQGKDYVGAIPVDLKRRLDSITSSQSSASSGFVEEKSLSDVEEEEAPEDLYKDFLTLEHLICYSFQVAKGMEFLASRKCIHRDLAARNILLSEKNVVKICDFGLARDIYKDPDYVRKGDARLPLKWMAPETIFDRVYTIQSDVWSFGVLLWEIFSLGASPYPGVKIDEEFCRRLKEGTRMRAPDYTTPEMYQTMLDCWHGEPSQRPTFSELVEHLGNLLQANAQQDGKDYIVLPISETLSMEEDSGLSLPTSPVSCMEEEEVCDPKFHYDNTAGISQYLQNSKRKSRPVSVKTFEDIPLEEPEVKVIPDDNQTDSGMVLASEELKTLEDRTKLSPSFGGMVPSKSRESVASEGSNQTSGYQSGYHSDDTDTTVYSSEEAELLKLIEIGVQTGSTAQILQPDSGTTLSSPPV

BAF/Tel-JAK3-S1.2/sACP = biological target: T4, BAF/Tel-JAK3-S1.2/sACP (Homo sapiens, UniProt P52333); assay: BaF3 proliferation assay; format: cell-based, murine
T4 construct: fused on or other part: P41212 (Transcription factor ETV6)

BaF-NPM-ALK = biological target: T5, BaF-NPM-ALK (Homo sapiens, UniProt Q9UM73); assay: BaF3 proliferation assay; format: cell-based, murine
T5 construct: expressed in transfected cells; host or cells: BaF3 (murine pro-B cell line); the other entry of the earlier key: NPM1 (P06748, Nucleophosmin)

BAF/Tel-AlK-Q1/sACP = biological target: T6, BAF/Tel-AlK-Q1/sACP (Homo sapiens, UniProt Q9UM73); assay: BaF3 proliferation assay; format: cell-based, murine
T6 construct: fused on or other part: P41212 (Transcription factor ETV6)

MMP-9 = MMP-9 production by human macrophages (ELISA); format: cell-based; settings: low dose (0.1 μM)
Protocol: Freshly isolated human PBMCs were used to purify human monocytes by negative selection using an indirect magnetic labeling system. […] Soluble factors such as cytokines (VEGFa, IL-6 etc.) and chemokines (IL-8, MCP-1, MMP9 etc.) in the culture supernatant were measured using commercial ELISA kits. The in vitro survival of human macrophages was measured using a commercially available CellTiter-Glo® system. Most observed results were repeated in multiple donors (n>5).

BAF/Tel-Src-3.1/sACP = biological target: T7, BAF/Tel-Src-3.1/sACP (Homo sapiens, UniProt P12931); assay: BaF3 proliferation assay; format: cell-based, murine
T7 construct: fused on or other part: P41212 (Transcription factor ETV6)

PKC_theta = PKC_theta (Homo sapiens, UniProt Q04759); assay: In vitro kinase assay (Table 1); format: biochemical
BAF/Tel-FLT1-Q1/sACP = biological target: T8, BAF/Tel-FLT1-Q1/sACP (Homo sapiens, UniProt P17948); assay: BaF3 proliferation assay; format: cell-based, murine
T8 construct: fused on or other part: P41212 (Transcription factor ETV6)

BaF-Tel-FGFR3 = biological target: T9, BaF-Tel-FGFR3 (Homo sapiens, UniProt P22607); assay: BaF3 proliferation assay; format: cell-based, murine
T9 construct: fused on or other part: P41212 (Transcription factor ETV6)
T9 sequence (P22607 472-761 limits assumed, change not shown): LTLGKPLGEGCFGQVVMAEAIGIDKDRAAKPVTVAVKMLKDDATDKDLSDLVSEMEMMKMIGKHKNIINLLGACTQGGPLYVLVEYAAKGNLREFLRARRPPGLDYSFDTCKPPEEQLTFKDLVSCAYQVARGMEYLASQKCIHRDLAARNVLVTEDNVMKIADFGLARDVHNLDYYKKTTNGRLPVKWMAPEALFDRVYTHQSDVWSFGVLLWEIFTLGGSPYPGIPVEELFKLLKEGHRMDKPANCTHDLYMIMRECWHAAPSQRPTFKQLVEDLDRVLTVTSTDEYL

PKC_alpha = PKC_alpha (Homo sapiens, UniProt P17252); assay: In vitro kinase assay (Table 1); format: biochemical
BaF-Tpr-MET = biological target: T10, BaF-Tpr-MET (Homo sapiens, UniProt P08581); assay: BaF3 proliferation assay; format: cell-based, murine
T10 construct: expressed in transfected cells; host or cells: BaF3 (murine pro-B cell line); the other entry of the earlier key: TPR (P12270, Nucleoprotein TPR)
T10 sequence (P08581 with tags, fused parts or gaps): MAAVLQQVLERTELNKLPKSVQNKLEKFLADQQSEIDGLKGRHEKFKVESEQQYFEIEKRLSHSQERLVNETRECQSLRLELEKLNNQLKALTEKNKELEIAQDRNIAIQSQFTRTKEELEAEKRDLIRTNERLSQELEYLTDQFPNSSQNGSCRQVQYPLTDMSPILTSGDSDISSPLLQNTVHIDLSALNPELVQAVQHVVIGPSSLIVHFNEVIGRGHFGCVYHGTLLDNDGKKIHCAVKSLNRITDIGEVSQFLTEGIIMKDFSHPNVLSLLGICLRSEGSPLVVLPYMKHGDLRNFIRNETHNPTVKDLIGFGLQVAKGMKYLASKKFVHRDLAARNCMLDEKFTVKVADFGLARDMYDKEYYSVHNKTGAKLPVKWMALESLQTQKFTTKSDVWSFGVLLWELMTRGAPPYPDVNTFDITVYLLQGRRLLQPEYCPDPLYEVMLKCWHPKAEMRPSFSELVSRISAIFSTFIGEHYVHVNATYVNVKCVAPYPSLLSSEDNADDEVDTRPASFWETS

Hck = Hck (Homo sapiens, UniProt P08631); assay: In vitro kinase assay (Table 1); format: biochemical
Hck, sequence (P08631 whole entry, species assumed): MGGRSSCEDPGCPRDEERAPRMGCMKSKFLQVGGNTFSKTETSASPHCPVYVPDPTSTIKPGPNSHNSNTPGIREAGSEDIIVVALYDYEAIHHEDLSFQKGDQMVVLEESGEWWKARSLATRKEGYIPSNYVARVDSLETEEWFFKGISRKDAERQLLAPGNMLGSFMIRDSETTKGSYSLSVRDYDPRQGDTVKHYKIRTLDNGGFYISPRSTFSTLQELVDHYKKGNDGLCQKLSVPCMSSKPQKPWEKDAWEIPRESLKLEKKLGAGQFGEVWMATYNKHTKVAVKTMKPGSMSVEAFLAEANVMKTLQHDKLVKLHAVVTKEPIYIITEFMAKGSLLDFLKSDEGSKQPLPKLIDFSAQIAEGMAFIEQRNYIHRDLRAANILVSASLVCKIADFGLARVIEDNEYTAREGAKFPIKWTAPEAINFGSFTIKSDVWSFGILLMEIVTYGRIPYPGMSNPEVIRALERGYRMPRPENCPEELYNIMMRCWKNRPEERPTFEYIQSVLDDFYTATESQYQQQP

BAF/Tel-Tie1-Q2/sACP = biological target: T11, BAF/Tel-Tie1-Q2/sACP (Homo sapiens, UniProt P35590); assay: BaF3 proliferation assay; format: cell-based, murine
T11 construct: fused on or other part: P41212 (Transcription factor ETV6)

VEGF = assay: Interaction with VEGF versus CSF-1 receptor signaling; settings: at concentrations where the signaling of the CSF-1 receptor is strongly or completely inhibited
PAK1 = PAK1 (Homo sapiens, UniProt Q13153); assay: In vitro kinase assay (Table 1); format: biochemical
Syk = Syk (Homo sapiens, UniProt P43405); assay: In vitro kinase assay (Table 1); format: biochemical
JNK2alpha2 = JNK2alpha2 (Homo sapiens, UniProt P45984); assay: In vitro kinase assay (Table 1); format: biochemical
BAF/Tel-RON-4.1/sACP = biological target: T12, BAF/Tel-RON-4.1/sACP (Homo sapiens, UniProt Q04912); assay: BaF3 proliferation assay; format: cell-based, murine
T12 construct: fused on or other part: P41212 (Transcription factor ETV6)

BAF/Tel-KDR-Q4/sACP = biological target: T13, BAF/Tel-KDR-Q4/sACP (Homo sapiens, UniProt P35968); assay: BaF3 proliferation assay; format: cell-based, murine
T13 construct: fused on or other part: P41212 (Transcription factor ETV6)
T13 sequence (P35968 834-1162 limits assumed, change not shown): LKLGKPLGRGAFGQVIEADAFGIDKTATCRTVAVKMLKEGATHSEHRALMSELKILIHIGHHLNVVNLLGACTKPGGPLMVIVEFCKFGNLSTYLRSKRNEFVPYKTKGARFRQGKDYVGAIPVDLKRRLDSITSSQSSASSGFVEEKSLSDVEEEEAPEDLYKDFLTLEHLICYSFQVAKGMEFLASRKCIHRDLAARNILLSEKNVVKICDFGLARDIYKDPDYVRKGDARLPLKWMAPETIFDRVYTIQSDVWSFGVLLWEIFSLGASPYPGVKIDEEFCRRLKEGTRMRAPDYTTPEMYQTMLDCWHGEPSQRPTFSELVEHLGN

smMLCK = smMLCK (Homo sapiens, UniProt Q15746); assay: In vitro kinase assay (Table 1); format: biochemical
ZAP70 = ZAP70 (Homo sapiens, UniProt P43403); assay: In vitro kinase assay (Table 1); format: biochemical
Syk (h) = biological target: T14, Syk (h) (Homo sapiens, UniProt P43405); assay: Kinase profiling at Invitrogen; format: biochemical
T14 construct: purchased Invitrogen

PDGFRKalphaT674I (h) = biological target: T15, PDGFRKalphaT674I (h) (Homo sapiens, UniProt P16234, T674I); assay: Kinase profiling at Invitrogen; format: biochemical
T15 construct: purchased Invitrogen
T15 sequence (P16234 550-1089 T674I limits assumed): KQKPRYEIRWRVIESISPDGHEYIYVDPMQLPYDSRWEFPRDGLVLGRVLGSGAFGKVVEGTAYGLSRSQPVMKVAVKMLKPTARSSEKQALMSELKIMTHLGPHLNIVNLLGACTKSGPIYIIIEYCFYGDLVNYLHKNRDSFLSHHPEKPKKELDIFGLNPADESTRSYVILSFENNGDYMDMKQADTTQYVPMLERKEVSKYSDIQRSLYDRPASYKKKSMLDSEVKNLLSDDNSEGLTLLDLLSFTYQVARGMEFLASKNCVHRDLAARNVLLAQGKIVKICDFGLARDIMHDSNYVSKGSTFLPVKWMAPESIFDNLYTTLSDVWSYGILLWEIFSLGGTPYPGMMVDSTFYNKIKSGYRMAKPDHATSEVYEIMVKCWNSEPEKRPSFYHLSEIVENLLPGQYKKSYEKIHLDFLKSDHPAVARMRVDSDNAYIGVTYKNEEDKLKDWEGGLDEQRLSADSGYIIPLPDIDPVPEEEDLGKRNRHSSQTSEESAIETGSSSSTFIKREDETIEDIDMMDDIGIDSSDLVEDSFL

Pim1 = Pim1 (Homo sapiens, UniProt P11309); assay: In vitro kinase assay (Table 1); format: biochemical
Pim1, sequence (P11309 whole entry, species assumed): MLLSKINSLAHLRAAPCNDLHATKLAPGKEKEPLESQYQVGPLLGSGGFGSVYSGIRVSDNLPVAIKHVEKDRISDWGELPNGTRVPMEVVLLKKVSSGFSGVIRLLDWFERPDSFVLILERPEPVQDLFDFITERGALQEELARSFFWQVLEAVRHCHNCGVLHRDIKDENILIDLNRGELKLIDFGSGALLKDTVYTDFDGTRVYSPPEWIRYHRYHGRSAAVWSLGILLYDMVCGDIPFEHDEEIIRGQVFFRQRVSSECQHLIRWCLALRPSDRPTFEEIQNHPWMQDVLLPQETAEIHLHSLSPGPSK

BAF/Tel-RET-Q1/sACP = biological target: T16, BAF/Tel-RET-Q1/sACP (Homo sapiens, UniProt P07949); assay: BaF3 proliferation assay; format: cell-based, murine
T16 construct: fused on or other part: P41212 (Transcription factor ETV6)

Compound: CNC(=O)c1cc(Oc2ccc3nc(NC4CCCCC4O)sc3c2)ccn1 (centres unmarked) [Compound (I)]
- IC50 (Ck1gamma2): > 10 µM
- IC50 (PHKG2): > 10 µM
- inhibition at 0.5 µM (CSF_1_RK (h); read-out: % inhibition @ 0.5 μM, CSF_1_RK (h)): 97%
- inhibition at 5 µM (CSF_1_RK (h); read-out: % inhibition @ 5 μM, CSF_1_RK (h)): 99%
- inhibition at 20 µM (CSF_1_RK (h); read-out: % inhibition @ 20 μM, CSF_1_RK (h)): 95%
- IC50 (Aurora_A): > 10 µM
- EC50 (BAF/Tel-Ros-1.1/sACP): > 10 µM
- IC50 (Cdk7 cyclinH MAT1): > 10 µM
- EC50 (BAF/Tel-FLT4-Q2/sACP): > 10 µM
- IC50 (KDR): > 25 µM
- EC50 (BAF/Tel-JAK3-S1.2/sACP): > 10 µM
- EC50 (BaF-NPM-ALK): > 10 µM
- EC50 (BAF/Tel-AlK-Q1/sACP): > 10 µM
- MMP-9 production by human macrophages (MMP-9): downregulated
- EC50 (BAF/Tel-Src-3.1/sACP): > 10 µM
- IC50 (PKC_theta): > 10 µM
- EC50 (BAF/Tel-FLT1-Q1/sACP): > 10 µM
- EC50 (BaF-Tel-FGFR3): > 10 µM
- IC50 (PKC_alpha): > 10 µM
- EC50 (BaF-Tpr-MET): > 10 µM
- IC50 (Hck): > 10 µM
- EC50 (BAF/Tel-Tie1-Q2/sACP): > 10 µM
- interaction with VEGF (VEGF): not to interact strongly
- IC50 (PAK1): > 25 µM
- IC50 (Syk): > 10 µM
- IC50 (JNK2alpha2): > 10 µM
- EC50 (BAF/Tel-RON-4.1/sACP): > 10 µM
- EC50 (BAF/Tel-KDR-Q4/sACP): > 10 µM
- IC50 (smMLCK): > 10 µM
- IC50 (ZAP70): > 10 µM
- inhibition at 0.5 µM (Syk (h); read-out: % inhibition @ 0.5 μM, Syk (h)): 32%
- inhibition at 5 µM (Syk (h); read-out: % inhibition @ 5 μM, Syk (h)): 36%
- inhibition at 20 µM (Syk (h); read-out: % inhibition @ 20 μM, Syk (h)): -15%
- inhibition at 0.5 µM (PDGFRKalphaT674I (h); read-out: % inhibition @ 0.5 μM, PDGFRKalphaT674I (h)): -3%
- inhibition at 5 µM (PDGFRKalphaT674I (h); read-out: % inhibition @ 5 μM, PDGFRKalphaT674I (h)): 2%
- inhibition at 20 µM (PDGFRKalphaT674I (h); read-out: % inhibition @ 20 μM, PDGFRKalphaT674I (h)): 45%
- IC50 (Pim1): > 25 µM
- EC50 (BAF/Tel-RET-Q1/sACP): > 10 µM
